Patent US20220324835A1 (Nurix Therapeutics, Inc., priority 2018, published 2022)

Columns and labels:
[1] = system: T-cell; test: IL-2 secretion from T-cells stimulated with anti-CD3 antibody alone (Biological Example 2); type: cell-based; details: primary human total T-cells, read-out: IL-2 secretion, Anti-CD3 stimulation, fold change over baseline; for fold induction at 1 µM: 1 μM compound; for fold induction at 8 µM: 8 μM compound
[2] = system: T-cell; test: IL-2 secretion from T-cells co-stimulated with anti-CD3 and anti-CD28 antibody (Biological Example 2); type: cell-based, human; details: Homo sapiens, T-cell, primary human total T-cells, baseline = anti-CD3/anti-CD28 stimulated cells without inhibitor, read-out: IL-2 secretion, Anti-CD3/Anti-CD28 stimulation, fold change over baseline; for fold induction at 0.3 µM: 0.3 μM compound; for fold induction at 1 µM: 1 μM compound; for fold induction at 4 µM: 4 μM compound
Outline: (§1)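 Values are fold-change over baseline: readings (IL-2 release, CD25 staining) from inhibitor-treated T-cells divided against untreated cells […]. No detailed procedure stated.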

[3] = target: T1, Cbl-b (Homo sapiens, UniProt Q13191); test: Cbl-b activity assay (Cbl-b inhibition assay), TR-FRET of Cbl-b interaction with UbcH5B-Ub; type: biochemical; details: assay buffer with 100 mM NaCl, 60 nM Src kinase; read-out: Cbl-b activity IC50
T1 sequence (Q13191 36-427): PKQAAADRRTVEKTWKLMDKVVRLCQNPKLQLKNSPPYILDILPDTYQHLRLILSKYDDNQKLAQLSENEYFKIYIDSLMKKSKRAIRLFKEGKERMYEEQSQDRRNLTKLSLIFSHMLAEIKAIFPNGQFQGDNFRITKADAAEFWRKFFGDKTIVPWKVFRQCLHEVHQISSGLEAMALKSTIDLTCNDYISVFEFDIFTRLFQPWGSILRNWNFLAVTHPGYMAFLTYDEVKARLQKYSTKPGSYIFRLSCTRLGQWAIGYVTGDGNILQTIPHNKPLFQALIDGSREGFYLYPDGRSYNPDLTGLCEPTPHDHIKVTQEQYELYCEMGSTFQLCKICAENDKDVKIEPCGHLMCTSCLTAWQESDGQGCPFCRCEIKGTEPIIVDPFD
Outline: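 Compound-treated Cbl-b was incubated 1.5 h with Src kinase (60 nM final; 30 nM for asterisked values, which also used 50 mM instead of 100 mM NaCl), 1 mM ATP and 5 mM MgCl2. Binding to fluorescent Ub-loaded UbcH5B (C85K mutant) was then read by TR-FRET after 1 h more.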

[4] = system: T-cell; test: CD25 cell surface staining on T-cells co-stimulated with anti-CD3 and anti-CD28 antibody (Biological Example 2); type: cell-based, human; details: Homo sapiens, T-cell, primary human total T-cells, baseline = anti-CD3/anti-CD28 stimulated cells without inhibitor, read-out: CD25 staining, Anti-CD3/Anti-CD28 stimulation, fold change over baseline; for fold induction at 0.3 µM: 0.3 μM compound; for fold induction at 1 µM: 1 μM compound; for fold induction at 4 µM: 4 μM compound
Outline: as §1

[5] = system: T-cell; test: CD25 cell surface staining on T-cells stimulated with anti-CD3 antibody alone (Biological Example 2); type: cell-based; details: primary human total T-cells, baseline = anti-CD3/anti-CD28 stimulated cells without inhibitor, read-out: CD25 staining, Anti-CD3 stimulation, fold change over baseline; for fold induction at 1 µM: 1 μM compound; for fold induction at 8 µM: 8 μM compound
[6] = target: T1, Cbl-b; test: Cbl-b inhibition assay (Cbl-b activity assay, FRET, Biological Example 1; 100 mM NaCl, 60 nM Src kinase); type: biochemical; details: upper bound stated in text lists; read-out: IC50 values in the Cbl-b inhibition assay of Biological Example 1
Outline: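 N-terminally biotinylated Avi-tagged Cbl-b was mixed with Src kinase, UbcH5B covalently conjugated to Bodipy-fluorescein ubiquitin, and streptavidin-terbium. Src phosphorylation lets Cbl-b bind UbcH5B-Ub, giving terbium-fluorescein FRET; inhibition is read as loss of FRET signal.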

| Compound | fold induction at 1 µM [1] | fold induction at 8 µM [1] | fold induction at 0.3 µM [2] | fold induction at 1 µM [2] | fold induction at 4 µM [2] | IC50 [3] | fold induction at 0.3 µM [4] | fold induction at 1 µM [4] | fold induction at 4 µM [4] | fold induction at 1 µM [5] | fold induction at 8 µM [5] | IC50 [6] |
| --- | --- | --- | --- | --- | --- | --- | --- | --- | --- | --- | --- | --- |
| C[C@@H](c1cc2c(c(C(F)(F)F)c1)CN(c1cccc([C@@](C)(F)C(F)(F)c3nncn3C)c1)C2=O)N1CC[C@H](F)C1 [Compound 460, 6-((S)-1-((S)-3-fluoropyrrolidin-1-yl)ethyl)-2-(3-((R)-1,1,2-trifluoro-1-(4-methyl-4H-1,2,4-triazol-3-yl)propan-2-yl)phenyl)-4-(trifluoromethyl)isoindolin-1-one] | > 0.201 | > 0.201 | > 7.5 | > 7.5 | > 7.5 | < 100 nM | 1.31 to 1.5 | 1.51 to 1.75 | 1.51 to 1.75 | > 1 | > 1 | ≤ 100 nM |
| Cn1cnnc1CC1(c2cccc(NC(=O)c3nc(C4CC4)cs3)c2)COC1 [Compound 493, 4-cyclopropyl-N-(3-{3-[(4-methyl-1,2,4-triazol-3-yl)methyl]oxetan-3-yl}phenyl)-1,3-thiazole-2-carboxamide] | < 0.05 | – | < 1 | 1.01 to 2.5 | – | 301 to 1000 nM | 1.01 to 1.3 | 1.01 to 1.3 | – | < 0.6 | – | ≤ 1000 nM |
| Cn1cnnc1C[C@]1(c2cccc(N3Cc4c(cccc4C(F)(F)F)C3=O)c2)C[C@H](CO)C1 [Compound 470, 2-{3-[(1R,3R)-3-(hydroxymethyl)-1-[(4-methyl-4H-1,2,4-triazol-3-yl)methyl]cyclobutyl]phenyl}-4-(trifluoromethyl)-2,3-dihydro-1H-isoindol-1-one] | 0.101 to 0.15 | > 0.201 | 1.01 to 2.5 | 2.51 to 5 | 5 to 7.5 | 100 to 300 nM | 1.31 to 1.5 | 1.51 to 1.75 | 1.51 to 1.75 | 0.801 to 1 | > 1 | ≤ 300 nM |
| Cc1conc1CC1(c2cccc(N3Cc4c(cc(CN5CCC6(CC6)C5)cc4C(F)(F)F)C3=O)c2)COC1 [Compound 535, 6-{5-azaspiro[2.4]heptan-5-ylmethyl}-2-(3-{3-[(4-methyl-1,2-oxazol-3-yl)methyl]oxetan-3-yl}phenyl)-4-(trifluoromethyl)-3H-isoindol-1-one] | > 0.201 | – | > 7.5 | > 7.5 | – | < 100 nM | 1.31 to 1.5 | 1.31 to 1.5 | – | > 1 | – | ≤ 100 nM |
| C[C@@H]1CN(C)CCN1c1cc2c(c(C(F)(F)F)c1)CN(c1cccc([C@@](C)(F)C(F)(F)c3nncn3C)c1)C2=O [Compound 443, 6-((R)-2,4-Dimethylpiperazin-1-yl)-2-(3-((R)-1,1,2-trifluoro-1-(4-methyl-4H-1,2,4-triazol-3-yl)propan-2-yl)phenyl)-4-(trifluoromethyl)isoindolin-1-one] | < 0.05 | 0.101 to 0.15 | 1.01 to 2.5 | 1.01 to 2.5 | 2.51 to 5 | < 100 nM | 1.01 to 1.3 | 1.01 to 1.3 | 1.31 to 1.5 | 0.801 to 1 | > 1 | ≤ 100 nM |
| C[C@H](Cc1nncn1C)c1cccc(N2Cc3c(cc([C@H](C)N4CC[C@H](F)C4)cc3C(F)(F)F)C2=O)c1 [Compound 404, 6-((S)-1-((S)-3-fluoropyrrolidin-1-yl)ethyl)-2-(3-((R)-1-(4-methyl-4H-1,2,4-triazol-3-yl)propan-2-yl)phenyl)-4-(trifluoromethyl)isoindolin-1-one] | > 0.201 | > 0.201 | > 7.5 | > 7.5 | > 7.5 | < 100 nM | 1.31 to 1.5 | 1.31 to 1.5 | 1.31 to 1.5 | > 1 | > 1 | ≤ 100 nM |
| CN(C)Cc1cc(C(=O)Nc2cccc(C3(Cc4nncn4C)COC3)c2)nc(C2CC2)n1 [Compound 503, 2-cyclopropyl-6-[(dimethylamino)methyl]-N-(3-{3-[(4-methyl-1,2,4-triazol-3-yl)methyl]oxetan-3-yl}phenyl)pyrimidine-4-carboxamide] | 0.101 to 0.15 | – | 2.51 to 5 | > 7.5 | – | < 100 nM | 1.31 to 1.5 | 1.31 to 1.5 | – | > 1 | – | ≤ 100 nM |
| CCOc1cc(N2Cc3c(cc(CN4CC[C@H](F)C4)cc3C(F)(F)F)C2=O)cc(C2(Cc3nncn3C)COC2)c1 [Compound 468, 2-(3-ethoxy-5-{3-[(4-methyl-4H-1,2,4-triazol-3-yl)methyl]oxetan-3-yl}phenyl)-6-{[(3×)-3-fluoropyrrolidin-1-yl]methyl}-4-(trifluoromethyl)-2,3-dihydro-1H-isoindol-1-one] | > 0.201 | – | 5 to 7.5 | > 7.5 | – | < 100 nM | 1.31 to 1.5 | 1.31 to 1.5 | – | > 1 | – | ≤ 100 nM |
| Cc1cc(C(=O)Nc2cccc([C@]3(Cc4nncn4C)CCOC3)c2)nc(C2CC2)n1 (single isomer, unassigned) [Compound 534a] | 0.051 to 0.1 | – | 1.01 to 2.5 | 2.51 to 5 | – | 100 to 300 nM | 1.01 to 1.3 | 1.01 to 1.3 | – | 0.601 to 0.8 | – | ≤ 300 nM |
| CC(c1cc2c(c(C(F)(F)F)c1)CN(c1cccc(C3(Cc4nncn4C)COC3)c1)C2=O)N1CC(S(C)(=O)=O)C1 (stereo not drawn) [Compound 430, 2-(3-(3-((4-methyl-4H-1,2,4-triazol-3-yl)methyl)oxetan-3-yl)phenyl)-6-(l-(3-(methylsulfonyl)azetidin-1-yl)ethyl)-4-(trifluoromethyl)isoindolin-1-one] | 0.101 to 0.15 | – | 1.01 to 2.5 | 1.01 to 2.5 | – | < 100 nM | 1.01 to 1.3 | 1.01 to 1.3 | – | 0.601 to 0.8 | – | ≤ 100 nM |
| Cn1cnnc1CC1(c2cccc(N3Cc4c(cc(CN5CCC(C)(F)C5)cc4C(F)(F)F)C3=O)c2)COC1 (stereo not drawn) [Compound 435, 6-((3-fluoro-3-methylpyrrolidin-1-yl)methyl)-2-(3-(3-((4-methyl-4H-1,2,4-triazol-3-yl)methyl)oxetan-3-yl)phenyl)-4-(trifluoromethyl)isoindolin-1-one] | > 0.201 | – | > 7.5 | > 7.5 | – | < 100 nM | 1.31 to 1.5 | 1.31 to 1.5 | – | > 1 | – | ≤ 100 nM |
| Cn1cnnc1CC1(c2cccc(N3Cc4c(cc(CN5CC[C@@H]6C[C@@H]65)cc4C(F)(F)F)C3=O)c2)COC1 (single isomer, unassigned) [Compound 486b] | > 0.201 | – | > 7.5 | > 7.5 | – | < 100 nM | 1.51 to 1.75 | 1.51 to 1.75 | – | > 1 | – | ≤ 100 nM |
| C[C@H](c1cc2c(c(C(F)(F)F)c1)CN(c1cccc(C3(Cc4nncn4C)COC3)c1)C2=O)N1CC(C)(F)C1 [Compound 543b, (R)-6-(1-(3-fluoro-3-methylazetidin-1-yl)ethyl)-2-(3-(3-((4-methyl-4H-1,2,4-triazol-3-yl)methyl)oxetan-3-yl)phenyl)-4-(trifluoromethyl)isoindolin-1-one] | > 0.201 | – | 5 to 7.5 | > 7.5 | – | < 100 nM | 1.51 to 1.75 | 1.51 to 1.75 | – | > 1 | – | ≤ 100 nM |
